The values that follow come from paper PMC3125149, “SCYX-7158, an Orally-Active Benzoxaborole for the Treatment of Stage 2 Human African Trypanosomiasis” (PLoS Neglected Tropical Diseases, 2011).

Data set [1] concerns T. b. brucei 427. Kind of data set: In vitro compound sensitivity assay (resazurin viability). Type of data set: cell-based. The following applies: Trypanosoma brucei. An excerpt:
(§1) The bloodstream-form T. b. brucei 427 strain was obtained from Dr. K. Stuart (Seattle Biomedical Research Institute, Seattle, WA) and was used for routine assessment of compound sensitivity in vitro. Additional strains used in vitro include T. b. rhodesiense STIB900, isolated in 1992 from a patient in Tanzania, and T. b. gambiense 108R, isolated from a patient in Democratic Republic of Congo in 2005. T. b. brucei EATRO 110 was a generous gift from the late William Trager of the Rockefeller University. T. b. brucei TREU 667 strains were kindly provided by F. W. Jennings at the University of Glasgow. Both T. b. brucei EATRO 110 and TREU 667 were cultured according to previously described conditions and used for in vivo studies.[18], [19]
(§2) T. b. brucei was cultured in complete HMI-9 medium,[20] which contains 10% fetal bovine serum (FBS) (Invitrogen, Carlsbad, CA), 10% Serum Plus medium (SAFC Biosciences, Lenexa, KS), and 100 units/mL penicillin and 0.1 mg/mL streptomycin. The trypanosomes were propagated in T-25 vented cap flasks (Corning Inc., Lowell, MA) at 37°C and 5% CO2 with humidity. To ensure log growth phase, trypanosomes were sub-cultured at appropriate dilutions (typically 1∶100) every 2–3 days in fresh HMI-9 medium. T. b. rhodesiense parasites were grown in MEM medium with Earle's salts supplemented with 15% horse serum. For T. b. gambiense, the MEM medium was supplemented with 5% heat-inactivated fetal calf serum (FCS) and 15% human serum.[21] L929 mouse fibroblast cells (ATCC CCL1, American Type Culture Collection, Rockville, MD) were used to determine parasite versus mammalian cell selectivity. Cells were cultured in Dulbecco's Modified Eagle Medium (DMEM), supplemented with 10% FBS, L-glutamine and 100 units/mL penicillin and 0.1 mg/mL streptomycin. MDCKII-hMDR1 cells were generously provided by P. Borst at the Netherlands Kancer Institute. Cells were cultured in DMEM with Glutamax, 10% (v/v) FBS, and 100 units/mL penicillin and 0.1 mg/mL streptomycin. Cell monolayers were fed with cell culture media 24 h after seeding and used for permeability studies 3 days later.
(§3) Compounds to be tested were serially diluted in DMSO and added to 96-well plates to give final concentrations ranging from 5 to 0.01 µg/mL. T. b. brucei parasites in the log phase of growth were diluted in HMI-9 media and added to each well for a final concentration of 1×10^4 parasites per well. For the sensitivity assays using T. b. rhodesiense and T. b. gambiense, pararasites were cultured in MEM supplemented with Baltz components (8), diluted in the aforementioned culture media, and added to each well at a density of 1×10^3 cells/well. The final concentration of DMSO was 0.5% and the total volume was 100 µL/well. After a 72 h incubation, resazurin (Sigma-Aldrich, St. Louis, MO) was added to each well [20 µL of 25 mg/100 mL stock in phosphate buffered saline (PBS)] and incubated for an additional 4–6 h.[22] To assess cell viability, fluorescence was quantified using an EnVision Multilabel Plate Reader (Perkin Elmer, Waltham, MA) at an excitation wavelength of 530 nm and emission of 590 nm. Triplicate data points were averaged to generate sigmoidal dose-response curves and determine IC50 values using XLfit curve fitting software from IDBS (Guilford, UK). The IC50 is defined as the amount of compound required to decrease parasite or cell viability by 50% compared to those grown in the absence of the test compound. […]
A general note: Resazurin is reduced to fluorescent resorufin, in cell work by metabolically active cells.

The test system of data set [2] is T. b. gambiense 108R. Described as above. The class given is cell-based. The note with it: Trypanosoma brucei, 72 h incubation, n = 1.
From the text: as §1, §2, §3

In data set [3] the test system is T. b. rhodesiense STIB 900. The description is as above. Type of data set: cell-based. The note with it: Trypanosoma brucei; 72 h incubation; n = 1.
From the text: as §1, §2, §3

Data set [4] relates to L929 mouse fibroblast cells. The data set is described as follows: Mammalian cell cytotoxicity. The class given is cell-based. As to the method: as §2, with “later. […]” for “later.”
Data set [5] can be described thus: Plasma protein binding by rapid equilibrium dialysis. Type of data set: in vitro ADME. The following applies: for fraction unbound at 4 h: read-out: unbound fraction (fu). As to the method: Binding to human or mouse plasma proteins or mouse brain homogenate was determined by rapid equilibrium dialysis (RED) (Pierce, Rockford, IL) using a 48-well plate-based format according to the manufacturer's instructions. Briefly, test compound at the required concentrations was added to fresh human or mouse plasma (Bioreclamation, Liverpool, NY) or freshly prepared mouse brain homogenate. Duplicate aliquots of each sample were transferred into the sample chambers of the RED devices, and dialysis buffer (BupH PBS) was added to the buffer chambers. The plates were sealed and incubated at 37°C for 4 h. After dialysis, samples collected from the buffer and tissue chambers were treated with ice-cold methanol (3 volumes for plasma, 4 volumes for brain) to precipitate proteins. The treated samples were centrifuged for 10 min at 3×10^3 g at 15°C. The supernatants were assayed for test compound by LC-MS/MS. Calibration standards and quality control samples were prepared in matched matrix and assayed with samples. Values for unbound and bound fractions and mass balance were calculated. Concordance of binding for each batch of plasma was confirmed by assay of warfarin, imipramine and carbamezapine. Acceptance criterion for mass balance was 70–120%.
In general terms: In equilibrium dialysis free small molecules cross a membrane that holds back macromolecules.

Data set [6] in a line: Steady-state pharmacokinetics in T. brucei-infected mice. The class given is in vivo, mouse. The note with it: for AUC(0-inf) / Cmax: mouse; for AUC(0-inf): read-out: AUC0-inf in brain tissue. As to the method: The blood distribution, CNS disposition and pharmacokinetics of SCYX-7158 were evaluated in infected or non-infected rodents following intravenous or oral administration of compounds. Pharmacokinetics and bioavailability of SCYX-7158 were also evaluated in non-infected beagle dogs and cynomolgus monkeys. In-life phases of non-infected rodent studies were performed at Vivisource (Waltham, MA); studies in non-naïve cynomolgus monkeys were performed by SNBL USA (Everett, WA).
Samples of plasma (25 µL) and CSF (10 µL) were treated with 3 volumes of ice-cold methanol (containing 25 ng/mL of 2-chloro-4-fluoro-N-(1-hydroxy-1,3-dihyrobenzo[c][1], [2]oxaborol-6-yl)benzamide or 25 ng/mL d6-SCYX-7158 as an internal standard) to precipitate proteins. Treated samples were gently mixed at room temperature for 10 min, and then centrifuged at approximately 3000×g for 15 min at 15°C. The supernatants were transferred to 96-well plates or HPLC vials for analysis by LC-MS/MS.
Pharmacokinetic parameters were calculated from composite mean plasma or tissue data using non-compartmental (oral and intravenous routes) and bi-exponential (intravenous route) analyses in Microsoft Excel.

Structures are written as SMILES. In brackets after ≈: the same amount, converted by molar mass. Read-outs that look alike come from different tables or passages of the source.

What is called IC50 is the concentration needed to halve the response being measured. The low end stands for inhibition by little substance, the high end for a need for much substance. For orientation: MIC means the lowest concentration that inhibits growth of the organism. A high value points to a less susceptible organism. A word on the fraction unbound: it is free concentration divided by total concentration. The term Cmax denotes the maximum level reached in the sampled fluid or tissue. Take `CC1(C)OB(O)c2cc(NC(=O)c3ccc(F)cc3C(F)(F)F)ccc21` [SCYX-7158]: the IC50 in data set [1] (72 h incubation, n = 9) is 0.292 ± 0.019 µg/mL (≈ 0.795 µM); in data set [2] it was 0.165 µg/mL (≈ 0.449 µM); in data set [3], 0.294 µg/mL (≈ 0.801 µM); in data set [4] (Mouse L929 fibroblast, n = 4), greater than 50 µg/mL. For the same compound, in data set [1] (T. b. brucei S427, visual inspection), the lowest concentration to inhibit growth (MIC) was 0.6 µg/mL (≈ 1.63 µM). The “inhibition of cell proliferation” value in data set [4] (drug concentrations up to 50 µg/mL) is given as “no significant inhibition”. Moreover, the fraction unbound at 4 h, 1 µg/mL amounted to 0.013 in data set [5] (human plasma) and 0.0032 in data set [5] (mouse, mouse plasma). For the same compound, the fraction unbound at 4 h, 50 µg/mL was 0.055 in data set [5] (human plasma) and 0.0463 in data set [5] (mouse, mouse plasma). For the same compound, the fraction unbound at 4 h stood at 0.003 in data set [5] (mouse, mouse plasma at the MIC (∼0.6 µg/mL)) and 0.032 in data set [5] (mouse, mouse plasma at ∼15 µg/mL (Cmax at steady-state)). In addition, the “time brain concentrations maintained at or above the MIC (0.6 µg/mL)” value in data set [6] (25 mg/kg dose) is on record as roughly 24 h. The AUC(0-inf) came out at 34200 ng·h/mL in data set [6] (Swiss Webster, brain, 12.5 mg/kg oral, 7 daily doses, infected mice) and 81500 ng·h/mL in data set [6] (Swiss Webster, brain, 25 mg/kg oral, 7 daily doses, infected mice). In addition, the peak concentration (Cmax) in data set [6] (Swiss Webster, brain, 12.5 mg/kg oral, 7 daily doses, infected mice, read-out: Cmax in brain tissue) was 6540 ng/mL; in data set [6] (Swiss Webster, brain, 25 mg/kg oral, 7 daily doses, infected mice, read-out: Cmax in brain tissue), 12000 ng/mL; in data set [6] (plasma, 25 mg/kg doses, read-out: plasma Cmax at steady-state), roughly 15000 ng/mL.
